Experimental findings from patent US20110053985A1, “NOVEL PIPERIDINE-4-CARBOXYLIC ACID PHENYL-ALKYL-AMIDE DERIVATIVES AND THEIR USE AS MONOAMINE NEUROTRANSMITTER RE-UPTAKE INHIBITORS” (NEUROSEARCH A/S, priority 2008, published 2011) are described below.

Counter-ions that a name gives are not always drawn.

In data set [1] the target is T1, serotonine (5-HT) reuptake in synaptosomes (Rattus norvegicus, UniProt P31652).
T1 construct: serotonine (5-HT) in synaptosomes as described in WO 97/16451; from tissue; host or cells: synaptosomes (brain tissue)
T1 sequence (P31652 whole entry): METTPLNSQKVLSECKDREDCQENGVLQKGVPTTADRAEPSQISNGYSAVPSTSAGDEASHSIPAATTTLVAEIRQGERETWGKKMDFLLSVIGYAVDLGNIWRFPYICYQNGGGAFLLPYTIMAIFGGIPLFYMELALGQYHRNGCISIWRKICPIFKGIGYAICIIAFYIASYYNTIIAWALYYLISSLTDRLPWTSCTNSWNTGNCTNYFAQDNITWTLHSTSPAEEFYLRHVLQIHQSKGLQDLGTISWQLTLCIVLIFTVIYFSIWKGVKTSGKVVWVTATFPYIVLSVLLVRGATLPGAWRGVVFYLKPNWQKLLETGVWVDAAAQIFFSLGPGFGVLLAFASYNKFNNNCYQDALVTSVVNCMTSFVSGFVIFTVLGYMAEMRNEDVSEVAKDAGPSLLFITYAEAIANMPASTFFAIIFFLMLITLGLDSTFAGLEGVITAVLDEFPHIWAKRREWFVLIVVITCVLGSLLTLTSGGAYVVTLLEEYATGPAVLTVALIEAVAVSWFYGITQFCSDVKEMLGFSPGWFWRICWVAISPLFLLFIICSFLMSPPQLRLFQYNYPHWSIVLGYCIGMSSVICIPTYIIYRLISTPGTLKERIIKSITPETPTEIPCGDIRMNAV
The experiment in a line: Inhibition of 5-HT reuptake in synaptosomes. The format is biochemical. The settings on record: 3H-5-HT, read-out: 5-HT-uptake IC50. An excerpt: (§1) Compounds of the invention may be tested for their ability to inhibit re-uptake of the monoamines dopamine, noradrenaline and serotonin in synaptosomes e.g. such as described in WO 97/30997 (NeuroSearch A/S) or WO 97/16451 (NeuroSearch NS). Based on the balanced activity observed in these tests the compound of the invention is considered useful for the treatment, prevention or alleviation of a disease or a disorder or a condition of a mammal, including a human, which disease, disorder or condition is responsive to inhibition of monoamine neurotransmitter re-uptake in the central nervous system.
(§2) Compounds were tested for their ability to inhibit the reuptake of the monoamine neurotransmitters dopamine (DA) noradrenaline (NA) and serotonine (5-HT) in synaptosomes as described in WO 97/16451 (NeuroSearch A/S).
(§3) The test values are given as IC50 (the concentration (μM) of the test substance which inhibits the specific binding of ^3H-DA, ^3H-NA, or ^3H-5-HT by 50%).

Data set [2] deals with T2, dopamine (DA) reuptake in synaptosomes (Rattus norvegicus, UniProt P23977).
T2 construct: in synaptosomes as described in WO 97/16451; from tissue; host or cells: synaptosomes (brain tissue)
T2 sequence (P23977 whole entry): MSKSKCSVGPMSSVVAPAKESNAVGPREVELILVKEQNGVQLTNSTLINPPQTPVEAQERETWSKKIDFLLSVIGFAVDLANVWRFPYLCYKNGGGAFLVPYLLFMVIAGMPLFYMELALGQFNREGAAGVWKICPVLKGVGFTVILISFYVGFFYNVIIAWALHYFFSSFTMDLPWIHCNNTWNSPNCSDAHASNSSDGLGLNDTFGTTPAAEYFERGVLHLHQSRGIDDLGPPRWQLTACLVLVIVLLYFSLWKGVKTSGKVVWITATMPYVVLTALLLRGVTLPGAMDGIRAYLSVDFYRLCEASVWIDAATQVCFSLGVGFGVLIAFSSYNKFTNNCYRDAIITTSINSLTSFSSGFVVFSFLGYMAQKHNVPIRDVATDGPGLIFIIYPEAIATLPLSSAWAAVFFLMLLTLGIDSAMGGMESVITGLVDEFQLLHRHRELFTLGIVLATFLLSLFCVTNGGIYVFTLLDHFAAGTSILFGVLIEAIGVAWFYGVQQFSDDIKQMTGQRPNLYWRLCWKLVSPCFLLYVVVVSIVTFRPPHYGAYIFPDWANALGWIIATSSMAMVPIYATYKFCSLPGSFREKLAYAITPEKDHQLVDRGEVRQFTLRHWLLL
Put plainly: Inhibition of DA reuptake in synaptosomes. The settings on record: 3H-DA, read-out: DA-uptake IC50. The format is biochemical.
Text: as §1, §2, §3

One may read the IC50 as the concentration that inhibits the measured activity by half. In the case of `CCN(C(=O)C1CCNCC1)c1ccc(Cl)c(Br)c1` [Compound C7, Piperidine-4-carboxylic acid (3-bromo-4-chloro-phenyl)-ethyl-amide hydrochloric acid salt], the IC50 was determined as 140 nM in data set [1] and 7.8 nM in data set [2].

In the case of `CCN(C(=O)C1CCNCC1)c1ccc(Br)c(Br)c1` [Compound C13, Piperidine-4-carboxylic acid (3,4-dibromo-phenyl)-ethyl-amide hydrochloric acid salt], the figures for the IC50 in data set [1] and in data set [2] were 120 nM and 4 nM, respectively.

By melting point is commonly meant the temperature, or range, at which the solid turns liquid. For the molecule `CCN(C(=O)C1CCNCC1)c1ccc(Cl)c(Cl)c1.O=C(O)C(F)(F)F` [Compound C1, Piperidine-4-carboxylic acid (3,4-dichloro-phenyl)-ethyl-amide trifluoroacetic acid salt], the melting point lay in the range of 159.3 to 160.7 °C. Moreover, the IC50 in data set [1] came out at 370 nM. The IC50 in data set [2] was 21 nM.
